In the assay the test system is normal human melanocytes. In words: Melanin production inhibition test using cultured normal human melanocytes (14C-thiouracil incorporation). The format is cell-based. The note with it: control = 100%; for activity at 20 µM: addition amount 20 μM; for activity at 10 µM: addition amount 10 μM; for activity at 3.1 µM: addition amount 3.1 μM; for activity at 1.6 µM: addition amount 1.6 μM. How it is done: The inhibitory effect on melanin production of the melanin production inhibitor of the present invention can be measured using thiouracil which is incorporated specifically into cells in a melanin synthesis process in the cells. For example, the amount of melanin production can be measured by measuring an amount of thiouracil incorporated into cells by measuring an amount of radiation with radiolabeled thiouracil.
The inhibitory effect on melanin production of Compound 1 was evaluated using 2-thiouracil (^14C-labeled 2-thiouracil was used in this test) which is incorporated specifically into melanin in an intracellular melanin synthesis process. Complete medium for culture of melanocytes (manufactured by Kurabo Industries Ltd.) was added to 15 wells in a 24-well plate in an amount of 2 mL per well, and normal human melanocytes (manufactured by Kurabo Industries Ltd.) were seeded into the wells at a concentration of 1.5×10^4 cells/cm^2. The cells were cultured in a 5% carbon dioxide atmosphere at 37° C. for 24 hours. Thereafter, the medium in all the wells was exchanged under the following conditions: fresh complete medium for culture of melanocytes (control) was used in three wells; each of complete medium for culture of melanocytes, which including Compound 1 at concentrations of 1.0 μM, 2.0 μM, and 4.0 μM, was used in a total of nine wells including three wells for each concentration; and complete medium for culture of melanocytes, each of which including arbutin (positive control) known as a melanin production inhibitor at a concentration of 0.5 mM (500 μM), was used in the other three wells. Further, 2-[2-^14C]thiouracil (^14C-labeled thiouracil) was added to each of these 15 wells at 0.25×10^−6 Ci (curie). Then, the cells were cultured for further 3 days under the same conditions as the above. After the completion of culture, the culture medium was removed from the wells, and the cells were washed with phosphate buffered physiological saline (PBS) and then separated from the bottoms of the wells with medium including trypsin and EDTA to prepare cell suspensions, followed by centrifugation to collect the cells. The number of the cells was counted using a hemocytometer. Thereafter, the amounts of ^14C-thiouracil in the cells collected from each well (0.25×10^−6 Ci) were measured using a liquid scintillation counter (ALOKA CO., LTD.). The percentages of an amount of radioactivity in the cells cultured in the medium including the test substances with respect to an amount of radioactivity in the cells collected from the well of the control were calculated as amounts of melanin (%). That is, as the amount of radioactivity incorporated into the cells is smaller, the amount of melanin is evaluated to be smaller, i.e., the melanin inhibition effect of the component added is evaluated to be larger.
Inhibitory effects on melanin production of Compounds 2 to 39 (however, the effects of Compound 9 and 15 were not measured) were examined in the same procedure as in Test Example 1.
These were examined in the same procedure as in Test Example 1.
Further, the results of melanin production inhibition by treatment with the respective test compounds, determined in the same procedure as in Test Example 1, are also shown in the table.

The mark [1] stands for this setting: Homo sapiens, Melanocyte, Table 2.

The source of these data is patent US8846012B2, “Melanin production inhibitor” (Pola Chemical Industries Inc., priority 2008, dated 2014).

`CC(c1ccccc1)(c1ccc(O)cc1)c1ccc(O)cc1` [4,4′-(1-Phenylidene)-bisphenol] displayed an Amount of melanin (Table 3, addition amount 3.0 μM) of 44.8 ± 1.0%.

The compound `Oc1ccc(C2(c3ccc(O)cc3)CCCCC2)cc1` [4,4′-Cyclohexylidenebisphenol] had an activity at 3 µM (Homo sapiens, Melanocyte, Table 3, addition amount 3.0 μM) of 38.3 ± 2.5%.

Turning to `CC(c1ccc(O)cc1)c1ccc(O)cc1` [4,4′-Ethylidenebisphenol], under “Homo sapiens, Melanocyte, Table 3, addition amount 25 μM”, the activity at 25 µM was 30.5 ± 6.1%.

On to `Oc1ccc(C(c2ccccc2)(c2ccccc2)c2ccccc2)cc1` [4-Tritylphenol], for which, under “Homo sapiens, Melanocyte, Table 3, addition amount 1.25 μM”, the activity at 1.25 µM was determined as 27 ± 0.4%.

The compound `OC[C@H]1O[C@@H](Oc2ccc(O)cc2)[C@H](O)[C@@H](O)[C@@H]1O` [Arbutin, arbutin, reference compound] returned an activity at 500 µM (Homo sapiens, Melanocyte, addition amount 500 μM, mean ± SD of three samples) of 64.6 ± 2.3%.

Compound `c1ccc(C(c2ccccc2)(c2ccccc2)N2CCNCC2)cc1` [Compound 7, 1-(triphenylmethyl)piperazine] displayed an activity at 6 µM (Homo sapiens, Melanocyte, Table 2, addition amount 6.0 μM) of 51.1 ± 5.8%.

Compound `c1ccc(C(c2ccccc2)(c2ccccc2)N2CCOCC2)cc1` [Compound 8, N-(triphenylmethyl)morpholine] displayed an activity at 2.5 µM (Homo sapiens, Melanocyte, Table 2, addition amount 2.5 μM) of 39.2 ± 10.7%.

As for `c1ccc(C(c2ccccc2)(c2ccncc2)N2CCCCC2)cc1` [Compound 10, 1-{[diphenyl(4-pyridyl)]methyl}piperidine], the activity at 0.3 µM (Homo sapiens, Melanocyte, Table 2, addition amount 0.3 μM) turned out to be 77.3 ± 0.4%.

`O=C1CCC(=O)N1C(c1ccccc1)(c1ccccc1)c1ccccc1` [Compound 11, 1-(triphenylmethyl)succinimide]: the activity at 15 µM (Homo sapiens, Melanocyte, Table 2, addition amount 15 μM) came to 53.7 ± 0.9%.

As to `O[C@@H]1CCN(C(c2ccccc2)(c2ccccc2)c2ccccc2)C1` [Compound 12, (R)-1-triphenylmethyl-3-pyrrolidinol], the activity at 5 µM (Homo sapiens, Melanocyte, Table 2, addition amount 5.0 μM) worked out at 62.9 ± 3.7%.

Under setting [1], `OC(c1ccccc1)c1ccc2ccccc2c1` (stereo not drawn) [Compound 13, [(naphthyl)phenyl]methanol] gave an activity at 20 µM of 68.7 ± 5.2%.

`OC(c1ccccc1)(c1ccccn1)c1ccccn1` [Compound 16, di(2-pyridyl)phenylmethanol]: for the setting “Homo sapiens, Melanocyte, Table 2, addition amount 100 μM”, the activity at 100 µM worked out at 91.5 ± 4.6%.

As to `COc1ccc(C(O)(c2ccccc2)c2ccccc2)cc1` [Compound 17, [diphenyl(4-methoxyphenyl)]methanol], under setting [1], the activity at 10 µM is 37 ± 1.5%.

Under setting [1], `COc1ccc(C(O)(c2ccccc2)c2ccc(OC)cc2)cc1` [Compound 18, [bis(4-methoxyphenyl)phenyl]methanol] returned an activity at 10 µM of 55.3 ± 3.4%.

For `COc1ccc(C(c2ccccc2)(c2ccccc2)N2CCCCC2)cc1` [Compound 19, 1-[[(4-methoxyphenyl)diphenyl]methyl]piperidine], the activity at 3.1 µM under setting [1] was 51.5 ± 5.7%.

Consider `COc1ccc(C(c2ccccc2)(c2ccc(OC)cc2)N2CCCCC2)cc1` [Compound 20, 1-[[bis(4-methoxyphenyl)phenyl]methyl]piperidine], for which, under setting [1], the activity at 3.1 µM is 73.2 ± 3.2%.

In turn, `COc1ccc(C(c2ccc(OC)cc2)(c2ccc(OC)cc2)N2CCCCC2)cc1` [Compound 21, 1-[tris(4-methoxyphenyl)methyl]piperidine] showed an activity at 12.5 µM (Homo sapiens, Melanocyte, Table 2, addition amount 12.5 μM) of 53.5 ± 0.4%.

With `Cc1ccc(C(O)(c2ccc(C)cc2)c2ccc(C)cc2)cc1` [Compound 22, tris(4-methylphenyl)methanol], the activity at 1.6 µM under setting [1] worked out at 50.6 ± 2%.

The compound `Cc1ccc(C(O)(c2ccccc2)c2ccc(C)cc2)cc1` [Compound 23, [bis(4-methylphenyl)phenyl]methanol] came in with an activity at 3.1 µM under setting [1] of 47.2 ± 0.2%.

The compound `Cc1ccc(C(O)(c2ccccc2)c2ccccc2)cc1` [Compound 24, [diphenyl(4-methylphenyl)]methanol] registered an activity at 3.1 µM under setting [1] of 51.6 ± 1.6%.

Consider `Cc1ccc(C(c2ccccc2)(c2ccccc2)N2CCCCC2)cc1` [Compound 25, [[diphenyl(4-methylphenyl)]methyl]piperidine], for which the activity at 1.6 µM under setting [1] turned out to be 48 ± 1.9%.

`Cc1ccc(C(c2ccc(C)cc2)(c2ccc(C)cc2)N2CCCCC2)cc1` [Compound 27, 1-[tris(4-methylphenyl)methyl]piperidine] returned an activity at 3.1 µM under setting [1] of 47.5 ± 0.6%.

`c1ccc(C(c2ccccc2)N2CCCC2)cc1` [Compound 28, 1-(diphenylmethyl)pyrrolidine]: the activity at 60 µM (Homo sapiens, Melanocyte, Table 2, addition amount 60 μM) came out at 77.3 ± 5.6%.

`Cc1ccc(C(c2ccc(C)cc2)N2CCCC2)cc1` [Compound 29, 1-[bis(4-methylphenyl)methyl]pyrrolidine] showed an activity at 20 µM under setting [1] of 49 ± 1.9%.
